Reference: article PMC6471386, “Cloning, Expression, and Characterization of a Psychrophilic Glucose 6-Phosphate Dehydrogenase from Sphingomonas sp. PAMC 26621” (International Journal of Molecular Sciences, 2019)

Biological target: T1, SpG6PD1 (Sphingomonas sp. PAMC 26621, UniProt Z9Q3C2ML64)
T1 construct: cloning primer appears to add Gly after Met1 (ATGGGGCCAATC); 56 kDa on SDS-PAGE; tag removal not mentioned
T1 sequence (Z9Q3C2ML64 1-488): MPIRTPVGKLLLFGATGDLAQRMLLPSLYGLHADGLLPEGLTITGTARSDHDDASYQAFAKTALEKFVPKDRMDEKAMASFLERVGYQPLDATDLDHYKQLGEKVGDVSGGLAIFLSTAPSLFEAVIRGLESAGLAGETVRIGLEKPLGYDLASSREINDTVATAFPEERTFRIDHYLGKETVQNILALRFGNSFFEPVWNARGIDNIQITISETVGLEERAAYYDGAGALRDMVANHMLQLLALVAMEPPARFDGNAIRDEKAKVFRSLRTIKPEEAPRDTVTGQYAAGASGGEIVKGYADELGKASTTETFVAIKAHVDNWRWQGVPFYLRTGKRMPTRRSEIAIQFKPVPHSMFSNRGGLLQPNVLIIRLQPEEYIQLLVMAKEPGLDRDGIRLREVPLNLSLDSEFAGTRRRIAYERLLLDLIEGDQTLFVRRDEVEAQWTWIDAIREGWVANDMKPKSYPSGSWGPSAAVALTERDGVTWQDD
Experiment: NAD(P)H formation at […] nm, Lineweaver-Burk
Format: biochemical
Details: NADP+ as co-substrate (assay mixture 100 µM); G6P varied 500-2000 µM; 50 mM Tris-HCl pH 8.0, 25 mM NaCl, 0.1 mM EDTA, 5% glycerol; 30 °C

- Km: 145 ± 2 µM
SMILES: O=P(O)(O)OC[C@H]1OC(O)[C@H](O)[C@@H](O)[C@@H]1O (stereo partly shown) [glucose 6-phosphate]
